The pIC50 is −log10 of the IC50, conventionally taken in molar units.

Consider one substance from patent US20240083944A1 (priority 2021, published 2024).

This test concerns SARS-CoV-2 pseudotyped HIV-1 virions, D614G.

pIC50: −log10 of the molar value. Starred links: 1 amine or outer side, 2 acyl side, 3 side chain; linkers in the order of their positions; H or OH if unused. Positions of bridges follow the written chain, without caps; N, C: chain ends. Non-standard residues stand in square brackets, D forms with d. Chains are numbered I, II in the order given. X2 = O=C(CCOCCN(CCOCCC(=O)NCCOCCOCCOCCOCCOCCOCCOCCOCCOCCOCCn1cc(CCC(=O)[*:2])nn1)CCOCCC(=O)NCCOCCOCCOCCOCCOCCOCCOCCOCCOCCOCCn1cc(CCC(=O)[*:3])nn1)NCCOCCOCCOCCOCCOCCOCCOCCOCCOCCOCCn1cc(CCC(=O)[*:1])nn1; X1 = C(c1nc(C[*:2])nc(C[*:3])n1)[*:1]; tBuAla = CC(C)(C)C[C@H](N)C(=O)O; Agb = N=C(N)NCC[C@H](N)C(=O)O

The substance “I: Ac-CPYVAG[Agb][dA]TCL[tBuAla]CK-NH2 / II: Ac-CPYVAG[Agb][dA]TCL[tBuAla]CK-NH2 / III: Ac-CPYVAG[Agb][dA]TCL[tBuAla]CK-NH2 (linker I:1-I:10-I:13, II:1-II:10-II:13, III:1-III:10-III:13 via X1; linker I:14-II:14-III:14 via X2) [BCY17021]” showed a negative logarithm of the IC50 (pIC50) of 9.30.
